Measured values from patent publication US12275731B2, “Azaindole inhibitors of wild-type and mutant forms of LRRK2” (DANA-FARBER CANCER INSTITUTE, INC., priority 2018, dated 2025).

Assays:
Assay in all cases: KinomeScan profiling
Type in all cases: binding
[1] = molecular target: T1, ABL1-nonphosphorylated (Homo sapiens, UniProt P00519); settings: read-out: % control
T1 construct: purchased KinomeScan®
How it was run: (§1)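 Compounds were screened at 1 μM in DMSO across a 468-kinase KinomeScan panel. Binding was expressed as % control, scaled between a positive control (0%) and DMSO (100%) using luminescence signal. A value under 35% counted as active.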

[2] = molecular target: T2, BMPR1A (Homo sapiens, UniProt P36894); settings: read-out: % control
T2 construct: purchased KinomeScan®
How it was run: as §1

[3] = molecular target: CIT (Homo sapiens, UniProt O14578); settings: read-out: % control
How it was run: as §1

[4] = molecular target: CLK3 (Homo sapiens, UniProt P49761); settings: CLK3, 1 μM; read-out: % control
How it was run: as §1

[5] = molecular target: CSNK1A1 (Homo sapiens, UniProt P48729); settings: CSNK1A1, 1 μM; read-out: % control
How it was run: as §1

[6] = molecular target: CSNK1G3 (Homo sapiens, UniProt Q9Y6M4); settings: CSNK1G3, 1 μM; read-out: % control
How it was run: as §1

[7] = molecular target: EGFR(E746-A750del) (Homo sapiens, UniProt P00533, DEL746-750); settings: read-out: % control
How it was run: as §1

[8] = molecular target: ERBB4 (Homo sapiens, UniProt Q15303); settings: ERBB4, 1 μM; read-out: % control
How it was run: (§2)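 Percent-of-control values derive from RLU, calculated as (test − positive)/(negative − positive) × 100, where DMSO defines 100% and a positive control compound defines 0%. Each compound was tested at 1 μM in the 468-kinase panel; sub-35% readings indicate activity.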

[9] = molecular target: ERK5 (Homo sapiens, UniProt Q13164); settings: ERK5, 1 μM; read-out: % control
How it was run: as §1

[10] = molecular target: FGFR1 (Homo sapiens, UniProt P11362); settings: FGFR1, 1 μM; read-out: % control
How it was run: as §1

[11] = molecular target: T3, JAK1(JH1domain-catalytic) (Homo sapiens, UniProt P23458); settings: read-out: % control
T3 construct: JAK1(JH1domain-catalytic); purchased KinomeScan®
How it was run: as §1

[12] = molecular target: T4, KIT(L576P) (Homo sapiens, UniProt P10721, L576P); settings: read-out: % control
T4 construct: purchased KinomeScan®
How it was run: as §1

[13] = molecular target: T5, PDPK1 (Homo sapiens, UniProt O15530); settings: PDPK1, 1 μM; read-out: % control
T5 sequence (O15530 1-556): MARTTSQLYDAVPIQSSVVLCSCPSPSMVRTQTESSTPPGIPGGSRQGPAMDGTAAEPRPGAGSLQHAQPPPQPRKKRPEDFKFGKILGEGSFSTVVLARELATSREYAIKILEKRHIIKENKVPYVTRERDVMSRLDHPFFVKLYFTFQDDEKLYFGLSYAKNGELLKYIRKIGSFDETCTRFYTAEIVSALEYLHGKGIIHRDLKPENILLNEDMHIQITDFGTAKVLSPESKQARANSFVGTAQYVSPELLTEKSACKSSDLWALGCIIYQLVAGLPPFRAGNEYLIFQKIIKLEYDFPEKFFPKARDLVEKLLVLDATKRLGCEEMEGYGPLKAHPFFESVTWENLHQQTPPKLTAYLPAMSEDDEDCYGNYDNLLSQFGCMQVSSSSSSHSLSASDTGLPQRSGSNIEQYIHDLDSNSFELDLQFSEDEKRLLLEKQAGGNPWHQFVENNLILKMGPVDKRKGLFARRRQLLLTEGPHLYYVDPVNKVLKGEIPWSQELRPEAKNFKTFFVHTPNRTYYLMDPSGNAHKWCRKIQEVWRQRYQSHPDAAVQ
How it was run: as §2

[14] = molecular target: PFPK5(P. falciparum) (Plasmodium falciparum, UniProt P61075); settings: read-out: % control
How it was run: as §1

[15] = molecular target: T6, PIK3CA(H1047Y) (Homo sapiens, UniProt P42336, H1047Y); settings: read-out: % control
T6 construct: purchased KinomeScan® (panel service)
How it was run: as §1

[16] = molecular target: PRKCH (Homo sapiens, UniProt P24723); settings: read-out: % control
How it was run: as §1

[17] = molecular target: T7, RSK4(Kin.Dom.2-C-terminal) (Homo sapiens, UniProt Q9UK32); settings: read-out: % control
T7 construct: RSK4(Kin.Dom.2-C-terminal)
T7 sequence (Q9UK32 426-683 limits assumed): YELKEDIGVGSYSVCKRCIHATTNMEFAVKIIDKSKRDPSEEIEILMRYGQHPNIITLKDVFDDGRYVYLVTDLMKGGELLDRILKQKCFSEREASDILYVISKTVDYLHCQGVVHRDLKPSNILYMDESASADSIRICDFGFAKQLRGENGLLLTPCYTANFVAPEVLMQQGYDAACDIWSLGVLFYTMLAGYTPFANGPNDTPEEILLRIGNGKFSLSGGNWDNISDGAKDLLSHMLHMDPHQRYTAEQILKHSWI
How it was run: as §1

[18] = molecular target: T8, p38-delta (Homo sapiens, UniProt O15264); settings: read-out: % control
T8 sequence (O15264 1-365): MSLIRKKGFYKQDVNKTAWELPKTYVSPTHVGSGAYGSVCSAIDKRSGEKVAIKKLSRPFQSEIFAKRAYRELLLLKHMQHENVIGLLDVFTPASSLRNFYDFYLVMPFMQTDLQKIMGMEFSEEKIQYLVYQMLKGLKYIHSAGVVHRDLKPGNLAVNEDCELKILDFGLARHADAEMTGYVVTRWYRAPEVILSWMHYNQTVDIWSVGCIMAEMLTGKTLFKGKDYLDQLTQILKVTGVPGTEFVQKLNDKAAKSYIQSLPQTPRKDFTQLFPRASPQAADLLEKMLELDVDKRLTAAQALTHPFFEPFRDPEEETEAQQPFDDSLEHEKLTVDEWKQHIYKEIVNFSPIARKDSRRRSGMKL
How it was run: as §1

CIT, sequence (O14578 whole entry): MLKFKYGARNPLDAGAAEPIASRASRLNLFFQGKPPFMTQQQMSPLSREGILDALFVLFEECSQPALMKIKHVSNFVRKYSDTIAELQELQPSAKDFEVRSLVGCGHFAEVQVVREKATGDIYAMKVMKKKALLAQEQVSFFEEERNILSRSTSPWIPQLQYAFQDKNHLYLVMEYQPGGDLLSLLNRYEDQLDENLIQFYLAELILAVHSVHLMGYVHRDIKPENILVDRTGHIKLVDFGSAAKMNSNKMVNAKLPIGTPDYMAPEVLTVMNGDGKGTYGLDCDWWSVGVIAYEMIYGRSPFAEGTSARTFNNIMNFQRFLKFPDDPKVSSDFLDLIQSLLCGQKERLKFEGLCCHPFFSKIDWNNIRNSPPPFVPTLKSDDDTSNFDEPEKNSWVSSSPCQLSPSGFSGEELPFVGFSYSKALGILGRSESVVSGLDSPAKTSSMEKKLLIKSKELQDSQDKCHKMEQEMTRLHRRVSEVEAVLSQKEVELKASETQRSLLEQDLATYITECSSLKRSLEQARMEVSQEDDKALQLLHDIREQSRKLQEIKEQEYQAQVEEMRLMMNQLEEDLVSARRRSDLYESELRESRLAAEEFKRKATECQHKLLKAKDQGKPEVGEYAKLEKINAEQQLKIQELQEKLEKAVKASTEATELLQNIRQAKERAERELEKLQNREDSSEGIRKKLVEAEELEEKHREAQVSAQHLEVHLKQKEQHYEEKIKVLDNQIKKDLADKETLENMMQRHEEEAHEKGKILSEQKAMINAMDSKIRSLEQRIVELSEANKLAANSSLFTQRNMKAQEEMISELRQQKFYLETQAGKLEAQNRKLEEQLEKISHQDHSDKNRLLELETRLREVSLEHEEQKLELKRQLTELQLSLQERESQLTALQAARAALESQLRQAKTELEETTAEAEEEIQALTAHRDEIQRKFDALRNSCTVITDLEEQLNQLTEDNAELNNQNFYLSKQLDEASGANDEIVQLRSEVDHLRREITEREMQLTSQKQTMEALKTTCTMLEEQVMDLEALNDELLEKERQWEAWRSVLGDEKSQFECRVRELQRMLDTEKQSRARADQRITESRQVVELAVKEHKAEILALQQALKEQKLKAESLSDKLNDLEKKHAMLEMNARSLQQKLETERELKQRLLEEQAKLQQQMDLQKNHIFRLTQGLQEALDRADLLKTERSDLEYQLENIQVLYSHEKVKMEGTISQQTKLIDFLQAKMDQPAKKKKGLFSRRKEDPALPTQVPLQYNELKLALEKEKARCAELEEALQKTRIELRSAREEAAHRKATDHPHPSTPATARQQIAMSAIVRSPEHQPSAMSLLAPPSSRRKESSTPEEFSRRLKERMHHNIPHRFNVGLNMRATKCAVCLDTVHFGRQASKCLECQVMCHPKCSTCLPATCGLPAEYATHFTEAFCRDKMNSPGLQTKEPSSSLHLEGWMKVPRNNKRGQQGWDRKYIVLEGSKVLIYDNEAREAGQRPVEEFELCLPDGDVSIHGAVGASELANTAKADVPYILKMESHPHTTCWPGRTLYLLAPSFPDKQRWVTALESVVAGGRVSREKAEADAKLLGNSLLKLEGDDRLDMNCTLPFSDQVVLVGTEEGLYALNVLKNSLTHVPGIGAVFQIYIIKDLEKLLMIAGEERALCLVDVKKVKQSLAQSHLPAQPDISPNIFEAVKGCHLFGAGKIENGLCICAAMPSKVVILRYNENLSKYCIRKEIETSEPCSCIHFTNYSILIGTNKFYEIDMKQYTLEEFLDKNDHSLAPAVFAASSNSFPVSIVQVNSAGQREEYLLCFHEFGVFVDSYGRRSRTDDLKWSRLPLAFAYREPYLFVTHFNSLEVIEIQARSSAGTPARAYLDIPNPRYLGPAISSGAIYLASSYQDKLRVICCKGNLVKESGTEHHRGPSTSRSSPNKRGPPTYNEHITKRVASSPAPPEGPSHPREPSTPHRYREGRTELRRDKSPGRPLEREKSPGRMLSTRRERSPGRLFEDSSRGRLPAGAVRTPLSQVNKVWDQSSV
T1 sequence (P00519 whole entry): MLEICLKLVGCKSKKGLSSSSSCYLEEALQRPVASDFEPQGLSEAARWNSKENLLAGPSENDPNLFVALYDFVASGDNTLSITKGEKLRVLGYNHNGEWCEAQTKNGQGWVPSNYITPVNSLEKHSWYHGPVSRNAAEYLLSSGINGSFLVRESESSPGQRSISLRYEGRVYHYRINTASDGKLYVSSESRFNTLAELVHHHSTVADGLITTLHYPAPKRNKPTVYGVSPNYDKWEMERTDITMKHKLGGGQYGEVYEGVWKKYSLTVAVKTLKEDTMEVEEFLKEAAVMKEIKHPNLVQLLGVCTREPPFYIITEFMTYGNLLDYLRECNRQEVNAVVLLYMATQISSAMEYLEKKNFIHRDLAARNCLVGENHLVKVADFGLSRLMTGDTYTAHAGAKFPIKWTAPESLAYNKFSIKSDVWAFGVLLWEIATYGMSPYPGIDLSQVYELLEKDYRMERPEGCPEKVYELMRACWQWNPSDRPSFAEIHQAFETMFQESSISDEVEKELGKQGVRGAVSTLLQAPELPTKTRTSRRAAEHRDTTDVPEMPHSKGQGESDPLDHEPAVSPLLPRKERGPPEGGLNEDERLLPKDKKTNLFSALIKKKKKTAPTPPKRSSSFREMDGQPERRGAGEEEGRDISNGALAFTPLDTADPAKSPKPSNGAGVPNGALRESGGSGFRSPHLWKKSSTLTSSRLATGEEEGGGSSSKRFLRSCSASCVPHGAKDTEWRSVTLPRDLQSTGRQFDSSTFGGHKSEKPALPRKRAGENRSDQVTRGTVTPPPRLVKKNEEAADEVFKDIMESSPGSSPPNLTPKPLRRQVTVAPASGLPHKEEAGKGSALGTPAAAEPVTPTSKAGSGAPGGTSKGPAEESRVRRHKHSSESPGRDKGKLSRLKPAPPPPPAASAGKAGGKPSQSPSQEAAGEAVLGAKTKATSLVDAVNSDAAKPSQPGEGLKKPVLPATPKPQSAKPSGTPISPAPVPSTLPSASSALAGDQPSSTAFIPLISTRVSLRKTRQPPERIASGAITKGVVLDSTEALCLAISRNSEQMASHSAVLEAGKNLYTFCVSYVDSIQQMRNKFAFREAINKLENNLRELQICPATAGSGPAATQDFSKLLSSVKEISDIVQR
CSNK1A1, sequence (P48729 whole entry): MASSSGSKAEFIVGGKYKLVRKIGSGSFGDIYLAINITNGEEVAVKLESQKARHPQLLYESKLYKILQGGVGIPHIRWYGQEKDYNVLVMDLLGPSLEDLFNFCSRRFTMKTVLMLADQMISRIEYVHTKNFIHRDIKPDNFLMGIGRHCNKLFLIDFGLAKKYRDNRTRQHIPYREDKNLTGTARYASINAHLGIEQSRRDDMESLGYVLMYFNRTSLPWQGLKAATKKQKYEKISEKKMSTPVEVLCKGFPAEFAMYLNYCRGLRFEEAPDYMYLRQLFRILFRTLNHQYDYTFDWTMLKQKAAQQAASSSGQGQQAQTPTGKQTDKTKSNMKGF
PFPK5(P. falciparum), sequence (P61075 whole entry): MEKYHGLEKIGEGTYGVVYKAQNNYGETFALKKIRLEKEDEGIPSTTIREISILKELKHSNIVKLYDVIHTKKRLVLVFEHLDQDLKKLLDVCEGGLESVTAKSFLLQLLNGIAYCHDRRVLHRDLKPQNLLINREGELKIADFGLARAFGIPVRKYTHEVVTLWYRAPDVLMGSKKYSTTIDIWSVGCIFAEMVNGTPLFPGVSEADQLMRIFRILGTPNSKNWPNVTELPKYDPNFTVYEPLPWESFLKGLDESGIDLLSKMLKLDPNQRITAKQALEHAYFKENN
T6 sequence (P42336 whole entry H1047Y): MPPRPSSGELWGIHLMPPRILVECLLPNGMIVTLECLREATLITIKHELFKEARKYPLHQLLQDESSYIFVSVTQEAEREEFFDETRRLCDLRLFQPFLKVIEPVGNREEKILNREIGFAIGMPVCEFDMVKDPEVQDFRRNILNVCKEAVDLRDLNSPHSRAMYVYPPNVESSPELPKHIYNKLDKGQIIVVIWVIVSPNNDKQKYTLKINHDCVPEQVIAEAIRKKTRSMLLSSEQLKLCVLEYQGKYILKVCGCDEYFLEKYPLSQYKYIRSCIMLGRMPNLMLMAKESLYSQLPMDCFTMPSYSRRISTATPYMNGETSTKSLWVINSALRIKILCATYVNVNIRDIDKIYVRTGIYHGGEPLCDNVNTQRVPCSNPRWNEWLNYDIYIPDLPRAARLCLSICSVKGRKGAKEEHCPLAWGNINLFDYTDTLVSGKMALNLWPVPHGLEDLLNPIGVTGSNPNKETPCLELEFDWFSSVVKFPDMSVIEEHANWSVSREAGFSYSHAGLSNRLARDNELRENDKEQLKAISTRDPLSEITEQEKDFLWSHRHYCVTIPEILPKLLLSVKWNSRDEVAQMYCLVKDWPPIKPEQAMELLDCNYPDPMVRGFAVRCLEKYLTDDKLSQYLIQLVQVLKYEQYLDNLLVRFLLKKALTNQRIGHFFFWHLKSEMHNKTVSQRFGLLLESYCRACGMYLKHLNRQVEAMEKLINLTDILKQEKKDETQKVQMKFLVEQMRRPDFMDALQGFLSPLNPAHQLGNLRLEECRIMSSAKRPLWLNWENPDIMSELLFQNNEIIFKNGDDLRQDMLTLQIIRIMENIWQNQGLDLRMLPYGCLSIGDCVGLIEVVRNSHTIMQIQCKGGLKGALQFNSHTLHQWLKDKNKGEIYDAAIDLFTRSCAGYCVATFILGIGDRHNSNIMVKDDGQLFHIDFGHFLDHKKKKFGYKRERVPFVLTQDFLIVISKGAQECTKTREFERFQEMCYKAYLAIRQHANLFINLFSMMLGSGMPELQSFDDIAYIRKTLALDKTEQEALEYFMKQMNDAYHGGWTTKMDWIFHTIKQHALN

Row | Structure (SMILES) | remaining binding at 1 µM [1] [%] | remaining binding at 1 µM [2] [%] | remaining binding at 1 µM [3] [%] | remaining binding at 1 µM [4] [%] | remaining binding at 1 µM [5] [%] | remaining binding at 1 µM [6] [%] | remaining binding at 1 µM [7] [%] | remaining binding at 1 µM [8] [%] | remaining binding at 1 µM [9] [%] | remaining binding at 1 µM [10] [%] | remaining binding at 1 µM [11] [%] | remaining binding at 1 µM [12] [%] | remaining binding at 1 µM [13] [%] | remaining binding at 1 µM [14] [%] | remaining binding at 1 µM [15] [%] | remaining binding at 1 µM [16] [%] | remaining binding at 1 µM [17] [%] | remaining binding at 1 µM [18] [%]
1 | CNc1c(-c2cnn([C@H]3CCN(C(C)=O)C[C@@H]3F)c2)cnc2[nH]cc(Cl)c12 [Compound 77, 1-((3S,4S)-4-(4-(3-chloro-4-(methylamino)-1H-pyrrolo[2,3-b]pyridin-5-yl)-1H-pyrazol-1-yl)-3-fluoropiperidin-1-yl)ethan-1-one] | 54 | 93 | 6.8 | 88 | 96 | 24 | 100 | 100 | 100 | 87 | 98 | 10 | 94 | 100 | 70 | 83 | 98 | 96
2 | O=C(c1ccc(-c2cnc3[nH]cc(Cl)c3c2NC2CCCC2)cc1)N1CCC(N2CCOCC2)CC1 [Compound 101, (4-(3-chloro-4-(cyclopentylamino)-1H-pyrrolo[2,3-b]pyridin-5-yl)phenyl)(4-morpholinopiperidin-1-yl)methanone] | 98 | 87 | 21 | 97 | 89 | 93 | 97 | 97 | 100 | 77 | 90 | 46 | 94 | 100 | 100 | 73 | 88 | 94
3 | CNc1c(-c2ccc(C(=O)N3CCC(N4CCOCC4)CC3)cc2)cnc2[nH]cc(Cl)c12 [Compound 96, (4-(3-chloro-4-(methylamino)-1H-pyrrolo[2,3-b]pyridin-5-yl)phenyl)(4-morpholinopiperidin-1-yl)methanone] | 63 | 66 | 11 | 98 | 100 | 16 | 93 | 100 | 81 | 85 | 100 | 19 | 68 | 100 | 84 | 92 | 91 | 99
